Test results from patent publication US20260069571A1, “DDR1 AND DDR2 INHIBITORS FOR THE TREATEMENT OF CANCER AND FIBROTIC DISEASES” (REDX PHARMA PLC, priority 2021, published 2026).

How the values were obtained:
[1] = molecular target: Recombinant human DDR1 (Homo sapiens (Human), UniProt Q08345); assay: LanthaScreen Eu Kinase Binding Assay, DDR1; conditions: DDR1 2.5 nM (aa440-876, GST tag), Kinase Tracer 178 5 nM; for IC50: read-out: DDR1 pIC50 (converted)
Description: (§1) DDR1 and DDR2 Biochemical Assay Method
(§2) The capacity of compounds to bind to DDR1 and DDR2 was quantified using a LanthaScreen Eu Kinase Binding Assay. Recombinant human DDR1 (2.5 nM; aa440-876 containing a GST tag) and DDR2 (1.75 nM; aa427-855 containing a GST tag) were diluted in assay buffer (50 mM HEPES pH7.3, 10 mM MgCl2, 1 mM EGTA and 0.01% Tween) with various concentrations of compound in a 384-well plate and a volume of 5 uL. After a 30-minute incubation at room temperature, 2.5 uL of Eu-anti GST antibody (diluted to 1 nM in assay buffer) plus Kinase Tracer 178 (diluted in assay buffer to 5 nM for DDR1 and 10 nM for DDR2) were added to the plate. Following 60-minute incubation at room temperature, time-resolved fluorescence was measured on a BMG Labtech PHERAstar plate reader. DMSO (1%) and reference compound (1 μM) were used to generate the Max and Min assay signals, respectively. Data was analysed using a four-parameter logistic model to calculate IC50 values, with at least two independent replicates were performed for each compound.

[2] = molecular target: Recombinant human DDR2 (Homo sapiens (Human), UniProt Q16832); assay: LanthaScreen Eu Kinase Binding Assay, DDR2; conditions: DDR2 1.75 nM (aa427-855, GST tag), Kinase Tracer 178 10 nM; for IC50: read-out: DDR2 pIC50 (converted)
Sequence of Recombinant human DDR2 (Q16832 427-855): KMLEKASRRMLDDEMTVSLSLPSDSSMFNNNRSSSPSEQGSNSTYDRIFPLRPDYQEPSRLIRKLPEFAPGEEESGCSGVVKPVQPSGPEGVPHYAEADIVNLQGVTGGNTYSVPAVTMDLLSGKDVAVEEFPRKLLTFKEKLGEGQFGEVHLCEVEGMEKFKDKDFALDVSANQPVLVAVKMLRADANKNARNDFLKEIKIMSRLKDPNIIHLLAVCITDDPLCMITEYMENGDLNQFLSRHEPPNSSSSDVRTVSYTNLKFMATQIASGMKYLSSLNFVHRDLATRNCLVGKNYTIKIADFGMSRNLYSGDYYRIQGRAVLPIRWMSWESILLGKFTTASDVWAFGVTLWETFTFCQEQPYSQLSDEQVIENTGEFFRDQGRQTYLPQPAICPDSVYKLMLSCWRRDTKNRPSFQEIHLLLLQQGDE
Description: as §1, §2

Sequence of Recombinant human DDR1 (Q08345 other isoform, or with tags, fused parts or gaps): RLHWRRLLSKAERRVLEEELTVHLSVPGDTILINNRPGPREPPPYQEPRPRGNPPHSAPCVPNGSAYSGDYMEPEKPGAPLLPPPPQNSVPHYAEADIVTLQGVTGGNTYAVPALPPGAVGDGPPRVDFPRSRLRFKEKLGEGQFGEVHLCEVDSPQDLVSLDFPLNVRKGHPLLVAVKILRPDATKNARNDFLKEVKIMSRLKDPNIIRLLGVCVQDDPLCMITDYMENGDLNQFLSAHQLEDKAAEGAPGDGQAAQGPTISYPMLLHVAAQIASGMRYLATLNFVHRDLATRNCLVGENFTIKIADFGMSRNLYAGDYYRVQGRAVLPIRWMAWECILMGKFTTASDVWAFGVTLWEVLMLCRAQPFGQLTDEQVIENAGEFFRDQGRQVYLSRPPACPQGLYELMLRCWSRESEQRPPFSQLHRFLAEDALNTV

Row | Structure (SMILES) | IC50 [1] | IC50 [2] | DDR1 pIC50 [1] | DDR2 pIC50 [2]
1 | Cn1ncc2cc(Nc3cccc4c3C(=O)N(CC(=O)Nc3cccc(C(F)(F)F)c3)C4)cnc21 [Example 59, 2-[7-[(1-methylpyrazolo[3,4-b]pyridin-5-yl)amino]-1-oxo-isoindolin-2-yl]-N-[3-(trifluoromethyl)phenyl]acetamide] | 10 to 100 nM | 100 to 1000 nM |  | 
2 | N#Cc1cc(Nc2cccc3c2C(=O)N(CC(=O)NCC(F)(F)F)C3)cc2cn[nH]c12 [Example 60, 2-[7-[(7-cyano-1H-indazol-5-yl)amino]-1-oxo-isoindolin-2-yl]-N-(2,2,2-trifluoroethyl)acetamide] |  |  | A (pIC50>8) | A (pIC50>8)
3 | Cc1n[nH]c2nc(Nc3cccc4c3C(=O)N(CC(=O)NCC(F)(F)F)C4)ccc12 [Example 61, 2-[7-[(3-methyl-1H-pyrazolo[3,4-b]pyridin-6-yl)amino]-1-oxo-isoindolin-2-yl]-N-(2,2,2-trifluoroethyl)acetamide] | 100 to 1000 nM |  |  | D (pIC50≤6)
4 | Cc1n[nH]c2cc(Nc3cccc4c3C(=O)N(CC(=O)NCC(F)(F)F)C4)cc(F)c12 [Example 62, 2-[7-[(4-fluoro-3-methyl-1H-indazol-6-yl)amino]-1-oxo-isoindolin-2-yl]-N-(2,2,2-trifluoroethyl)acetamide] |  |  | A (pIC50>8) | A (pIC50>8)
5 | Cc1n[nH]c2cc(Nc3cccc4c3C(=O)N(CC(=O)N[C@@H](C)C(F)(F)F)C4)cc(F)c12 [Example 63, 2-[7-[(4-fluoro-3-methyl-1H-indazol-6-yl)amino]-1-oxo-isoindolin-2-yl]-N-[(1S)-2,2,2-trifluoro-1-methyl-ethyl]acetamide] |  |  | A (pIC50>8) | A (pIC50>8)
6 | Cc1n[nH]c2cc(Nc3cccc4c3C(=O)N(CC(=O)N3CCC[C@H]3C(F)(F)F)C4)cc(F)c12 [Example 64, 7-[(4-fluoro-3-methyl-1H-indazol-6-yl)amino]-2-[2-oxo-2-[(2S)-(trifluoromethyl)pyrrolidin-1-yl]ethyl]isoindolin-1-one] | < 10 nM | < 10 nM |  | 
7 | Cc1n[nH]c2cc(Nc3cccc4c3C(=O)N(CC(=O)Nc3cnoc3)C4)cc(F)c12 [Example 65, 2-[7-[(4-fluoro-3-methyl-1H-indazol-6-yl)amino]-1-oxo-isoindolin-2-yl]-N-isoxazol-4-yl-acetamide] | 100 to 1000 nM |  |  | D (pIC50≤6)
8 | Cc1n[nH]c2cc(Nc3cccc4c3C(=O)N(CC(=O)N[C@@H](C)C(F)(F)F)C4)cnc12 [Example 66, 2-[7-[(3-methyl-1H-pyrazolo[4,3-b]pyridin-6-yl)amino]-1-oxo-isoindolin-2-yl]-N-[(1S)-2,2,2-trifluoro-1-methyl-ethyl]acetamide] |  |  | A (pIC50>8) | A (pIC50>8)
9 | Cc1n[nH]c2cc(Nc3cccc4c3C(=O)N(CC(=O)N3CCC[C@H]3C(F)(F)F)C4)cnc12 [Example 67, 7-[(3-methyl-1H-pyrazolo[4,3-b]pyridin-6-yl)amino]-2-[2-oxo-2-[(2S)-(trifluoromethyl)pyrrolidin-1-yl]ethyl]isoindolin-1-one] | < 10 nM | < 10 nM |  | 
10 | Cc1n[nH]c2cc(Nc3cccc4c3C(=O)N(CC(=O)N3CCO[C@@H](C(F)(F)F)C3)C4)cnc12 [Example 68, 7-[(3-methyl-1H-pyrazolo[4,3-b]pyridin-6-yl)amino]-2-[2-oxo-2-[(2R)-(trifluoromethyl)morpholin-4-yl]ethyl]isoindolin-1-one] | 10 to 100 nM | 100 to 1000 nM |  | 
11 | Cc1n[nH]c2cc(Nc3cccc4c3C(=O)N(CC(=O)N3CCO[C@H](C(F)(F)F)C3)C4)cnc12 [Example 69, 7-[(3-methyl-1H-pyrazolo[4,3-b]pyridin-6-yl)amino]-2-[2-oxo-2-[(2S)-(trifluoromethyl)morpholin-4-yl]ethyl]isoindolin-1-one] | 10 to 100 nM | 100 to 1000 nM |  | 
12 | Cc1n[nH]c2cc(Nc3cccc4c3C(=O)N(CC(=O)N3CCOC[C@H]3C(F)(F)F)C4)cnc12 [Example 70, 7-[(3-methyl-1H-pyrazolo[4,3-b]pyridin-6-yl)amino]-2-[2-oxo-2-[(3S)-(trifluoromethyl)morpholin-4-yl]ethyl]isoindolin-1-one] | 100 to 1000 nM | ≥ 1000 nM |  | 
13 | Cc1n[nH]c2cc(Nc3cccc4c3C(=O)N(CC(=O)N3CCOC[C@@H]3C(F)(F)F)C4)cnc12 [Example 71, 7-[(3-methyl-1H-pyrazolo[4,3-b]pyridin-6-yl)amino]-2-[2-oxo-2-[(3R)-(trifluoromethyl)morpholin-4-yl]ethyl]isoindolin-1-one] | 10 to 100 nM | 10 to 100 nM |  | 
14 | C[C@H](NC(=O)CN1Cc2cccc(Nc3cnc4[nH]ncc4c3)c2C1=O)C(F)(F)F [Example 73, 2-[1-oxo-7-(1H-pyrazolo[3,4-b]pyridin-5-ylamino)isoindolin-2-yl]-N-[(1S)-2,2,2-trifluoro-1-methyl-ethyl]acetamide] | < 10 nM | 10 to 100 nM |  | 
15 | O=C1c2c(cccc2Nc2cnc3[nH]ncc3c2)CN1CC(=O)N1CCC[C@H]1C(F)(F)F [Example 74, 2-[2-oxo-2-[(2S)-(trifluoromethyl)pyrrolidin-1-yl]ethyl]-7-(1H-pyrazolo[3,4-b]pyridin-5-ylamino)isoindolin-1-one] | < 10 nM | < 10 nM |  | 
16 | O=C(CN1Cc2cccc(Nc3cnc4[nH]ncc4c3)c2C1=O)NC1CC1(F)F (stereo not drawn) [Example 75, N-(2,2-difluorocyclopropyl)-2-[1-oxo-7-(1H-pyrazolo[3,4-b]pyridin-5-ylamino)isoindolin-2-yl]acetamide] | 10 to 100 nM | 100 to 1000 nM |  | 
17 | CN(CC(F)(F)F)C(=O)CN1Cc2cccc(Nc3cnc4[nH]ncc4c3)c2C1=O [Example 76, N-methyl-2-[1-oxo-7-(1H-pyrazolo[3,4-b]pyridin-5-ylamino)isoindolin-2-yl]-N-(2,2,2-trifluoroethyl)acetamide] | 10 to 100 nM | 10 to 100 nM |  | 
18 | C[C@H](N(C)C(=O)CN1Cc2cccc(Nc3cnc4[nH]ncc4c3)c2C1=O)C(F)(F)F [Example 77, N-methyl-2-[1-oxo-7-(1H-pyrazolo[3,4-b]pyridin-5-ylamino)isoindolin-2-yl]-N-[(1S)-2,2,2-trifluoro-1-methyl-ethyl]acetamide] | 10 to 100 nM | 10 to 100 nM |  | 
19 | Cc1n[nH]c2cc(N(C)c3cccc4c3C(=O)N(CC(=O)NCC(F)(F)F)C4)ccc12 [Example 78, 2-[7-[methyl-(3-methyl-1H-indazol-6-yl)amino]-1-oxo-isoindolin-2-yl]-N-(2,2,2-trifluoroethyl)acetamide] | 10 to 100 nM | 100 to 1000 nM |  | 
20 | Cn1ncc2cc(Nc3cccc4c3C(=O)N(CC(=O)NCC(F)(F)F)C4(F)F)ccc21 [Example 79, 2-[1,1-difluoro-4-[(1-methylindazol-5-yl)amino]-3-oxo-isoindolin-2-yl]-N-(2,2,2-trifluoroethyl)acetamide] | 10 to 100 nM |  |  | D (pIC50≤6)
21 | CC(C)c1n[nH]c2cc(Nc3cccc4c3C(=O)N(CC(=O)NCC(F)(F)F)C4)ccc12 [Example 80, 2-[7-[(3-isopropyl-1H-indazol-6-yl)amino]-1-oxo-isoindolin-2-yl]-N-(2,2,2-trifluoroethyl)acetamide] | 100 to 1000 nM | 100 to 1000 nM |  | 
22 | O=C(CN1Cc2cccc(Nc3ccc4cn[nH]c4c3)c2C1=O)NCC(F)(F)F [Example 81, 2-[7-(1H-indazol-6-ylamino)-1-oxo-isoindolin-2-yl]-N-(2,2,2-trifluoroethyl)acetamide] | 10 to 100 nM | 100 to 1000 nM |  | 
23 | N#Cc1n[nH]c2ccc(Nc3cccc4c3C(=O)N(CC(=O)N3CCC[C@H]3C(F)(F)F)C4)cc12 [Example 82, 5-[[3-oxo-2-[2-oxo-2-[(2S)-(trifluoromethyl)pyrrolidin-1-yl]ethyl]isoindolin-4-yl]amino]-1H-indazole-3-carbonitrile] | 10 to 100 nM | ≥ 1000 nM |  | 
24 | O=C1c2c(cccc2Nc2ccc3[nH]nc(F)c3c2)CN1CC(=O)N1CCC[C@H]1C(F)(F)F [Example 83, 7-[(3-fluoro-1H-indazol-5-yl)amino]-2-[2-oxo-2-[(2S)-(trifluoromethyl)pyrrolidin-1-yl]ethyl]isoindolin-1-one] | 10 to 100 nM | 10 to 100 nM |  | 
25 | O=C1c2c(cccc2Nc2ccc3[nH]ncc3n2)CN1CC(=O)N1CCC[C@H]1C(F)(F)F [Example 84, 2-[2-oxo-2-[(2S)-(trifluoromethyl)pyrrolidin-1-yl]ethyl]-7-(1H-pyrazolo[4,3-b]pyridin-5-ylamino)isoindolin-1-one] | 10 to 100 nM | 100 to 1000 nM |  | 
26 | Cn1ncc2nc(Nc3cccc4c3C(=O)N(CC(=O)N3CCC[C@H]3C(F)(F)F)C4)ccc21 [Example 85, 7-[(1-methylpyrazolo[4,3-b]pyridin-5-yl)amino]-2-[2-oxo-2-[(2S)-(trifluoromethyl)pyrrolidin-1-yl]ethyl]isoindolin-1-one] | 10 to 100 nM | 10 to 100 nM |  | 
27 | CN(c1ccc2[nH]nc(C#N)c2c1)c1cccc2c1C(=O)N(CC(=O)N1CCC[C@H]1C(F)(F)F)C2 [Example 86, 5-[methyl-[3-oxo-2-[2-oxo-2-[(2S)-(trifluoromethyl)pyrrolidin-1-yl]ethyl]isoindolin-4-yl]amino]-1H-indazole-3-carbonitrile] | 10 to 100 nM | 10 to 100 nM |  | 
